Publication PMC13619113 (Journal of controlled release : official journal of the …, 2023)

What was measured:
Sprague-Dawley rats [1] = experiment: Blood glucose response after subcutaneous administration; assay type: in vivo, rat; conditions: subcutaneous 1 IU/kg, fasted Sprague-Dawley rats, Fig. 7
[2] = system: 50:50 coculture of Caco-2:HT29-MTX cells
Sprague-Dawley rats [3] = experiment: Blood glucose response after intestinal closed-loop; assay type: in vivo, rat
[4] = rat, in vivo

Row | Substance | effect on blood glucose level (Sprague-Dawley rats [1]) | Papp × 10^−9 (cm/s) [2] | increase of the pharmacological availability over insulin (Sprague-Dawley rats [3]; 50 IU/kg to the small intestine, rat) [times] | effect on blood glucose level (Sprague-Dawley rats [3]; 50 IU/kg delivered directly to the ileum, Fig. 8) | AUC [4] [ng·h/mL] | BA (%) [4] [%]
1 | 1KPI: bovine insulin conjugated with 1000 da PEG via PEG nitrophenyl carbonate | effective at reducing the glucose levels below baseline throughout the testing period | 3.28 ± 0.88 × 10^−9 cm/s |  |  |  | 
2 | 2KPI: bovine insulin conjugated with 2000 da PEG via PEG nitrophenyl carbonate, 1:1, at LysB29 |  | 2.90 ± 0.86 × 10^−9 cm/s | 2.8 |  |  | 
3 | 5KPI: bovine insulin conjugated with 5000 da PEG via PEG nitrophenyl carbonate | least effect of the PEGylated insulin samples on blood glucose levels | 2.44 ± 0.06 × 10^−9 cm/s |  |  |  | 
4 | Bovine insulin | effective at reducing the glucose levels below baseline throughout the testing period |  |  | limited hypoglycemic response | 12610 ± 9850 | 1.064 ± 0.83
